Calls of active or inactive are those of the source.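 Rule for the calls: active = mean IC50 below 20 µM in each of the two panels, so potent in both; inactive = the rest.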
Molecular target: Neuropilin-1 (Homo sapiens) (UniProt O14786)
Experiment: NRP-1 b1b2 CendR peptide binding inhibitors, dose response, biochemical, FP and AlphaScreen panel (AID 651650)
Settings: NRP-1 b1b2 / RPARPAR peptide binding, FP or AlphaScreen
[1] = AlphaScreen, run 1, individual panel run IC50
[2] = FP, run 1, individual panel run IC50
[3] = FP, run 2, individual panel run IC50

Sequence of Neuropilin-1 (Homo sapiens) (O14786 whole entry, looked up): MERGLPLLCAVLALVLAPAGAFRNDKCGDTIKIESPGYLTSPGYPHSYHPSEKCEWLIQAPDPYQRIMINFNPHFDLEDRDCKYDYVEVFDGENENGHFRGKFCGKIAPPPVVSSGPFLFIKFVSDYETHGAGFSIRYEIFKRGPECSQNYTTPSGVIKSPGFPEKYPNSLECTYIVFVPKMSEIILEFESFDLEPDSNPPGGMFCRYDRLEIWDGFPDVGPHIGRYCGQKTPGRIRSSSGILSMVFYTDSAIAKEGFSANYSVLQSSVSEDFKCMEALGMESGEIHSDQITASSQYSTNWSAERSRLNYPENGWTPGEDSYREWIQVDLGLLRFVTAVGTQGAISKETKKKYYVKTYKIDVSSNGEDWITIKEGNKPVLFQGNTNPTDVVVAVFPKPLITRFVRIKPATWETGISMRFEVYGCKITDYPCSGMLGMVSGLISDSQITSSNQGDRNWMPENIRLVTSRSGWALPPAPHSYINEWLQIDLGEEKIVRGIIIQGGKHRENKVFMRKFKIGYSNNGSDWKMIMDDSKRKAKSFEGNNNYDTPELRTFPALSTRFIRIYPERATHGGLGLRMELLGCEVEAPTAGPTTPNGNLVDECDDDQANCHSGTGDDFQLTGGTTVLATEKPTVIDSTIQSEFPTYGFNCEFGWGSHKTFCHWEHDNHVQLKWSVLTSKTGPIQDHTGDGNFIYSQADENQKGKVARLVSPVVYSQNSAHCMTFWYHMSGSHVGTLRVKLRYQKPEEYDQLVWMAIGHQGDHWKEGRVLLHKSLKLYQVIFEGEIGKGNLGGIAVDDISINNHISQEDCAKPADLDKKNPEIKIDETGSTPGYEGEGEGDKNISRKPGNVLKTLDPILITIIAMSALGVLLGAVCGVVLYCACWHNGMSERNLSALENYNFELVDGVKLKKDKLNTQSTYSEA

| Compound | IC50 (AlphaScreen, mean of runs) | IC50 [1] | IC50 (FP, mean of runs) | IC50 [2] | IC50 [3] |
| --- | --- | --- | --- | --- | --- |
| O=C1C=CC(=O)C2C1C1(Cl)C(Cl)=C(Cl)C2(Cl)C1(Cl)Cl (stereo not given) | > 100 µM (inactive) | > 100 µM | > 95 µM (inactive) | > 95 µM | > 95 µM |
| Cn1c(=O)c2c(nc(OCc3cccnc3)n2Cc2ccccc2)n(C)c1=O | inactive | 40.7 µM | > 95 µM (inactive) | > 95 µM | > 95 µM |
| C=C1CCN([C@@H](CC(C)C)C(=O)NCc2ccccc2)S(=O)(=O)c2ccccc21 | > 100 µM (inactive) | > 100 µM | > 95 µM (inactive) | > 95 µM | > 95 µM |
| CCCCc1ccc(S(=O)(=O)N2CCC3(CC2)OCCO3)cc1 | > 100 µM (inactive) | > 100 µM | > 95 µM (inactive) | > 95 µM | > 95 µM |
| O=C(O)c1ccccc1SCC(=O)N1CCCCC1 | > 100 µM (inactive) | > 100 µM | > 95 µM (inactive) | > 95 µM | > 95 µM |
| COc1cc(C(=O)OCC(=O)Nc2c(F)c(F)c(F)c(F)c2F)cc(OC)c1OC | > 100 µM (inactive) | > 100 µM | > 95 µM (inactive) | > 95 µM | > 95 µM |
| O=C1CSC(c2cn(-c3ccccc3)nc2-c2cccs2)N1CC1CCCO1 (stereo not given) | inactive | 44.4 µM | > 95 µM (inactive) | > 95 µM | > 95 µM |
| CCOC(=O)c1cnc(-c2ccccc2)nc1Oc1ccc(OC)cc1 | 10.4 µM | 10.4 µM | 19.9 µM | 17.9 µM | 21.8 µM |
| CCn1c(SCC(=O)c2ccccc2)nnc1-c1cccs1 | inactive | 95.3 µM | > 95 µM (inactive) | > 95 µM | > 95 µM |
| O=C(Cc1ccccc1Cl)N1CCOCC1 | > 100 µM (inactive) | > 100 µM | > 95 µM (inactive) | > 95 µM | > 95 µM |
| CC(NCCOCCOc1ccccc1)c1ccccc1 (stereo not given) | > 100 µM (inactive) | > 100 µM | > 95 µM (inactive) | > 95 µM | > 95 µM |
| O=C(O/N=C1/CCSc2ccccc21)c1ccccc1 | > 100 µM (inactive) | > 100 µM | > 95 µM (inactive) | > 95 µM | > 95 µM |
| CN1C(=O)c2oc3ccccc3c(=O)c2C1c1ccccn1 (stereo not given) | inactive | 34.9 µM | inactive | 25.1 µM | 21.4 µM |
| CCNC(=O)C1(C)CCCN(C(=O)c2nc(C)oc2C)C1 (stereo not given) | > 100 µM (inactive) | > 100 µM | > 95 µM (inactive) | > 95 µM | > 95 µM |
| COc1ccc(C2CC(O)(c3ccccc3)Oc3cc(OC)ccc32)cc1 (stereo not given) | > 100 µM (inactive) | > 100 µM | > 95 µM (inactive) | > 95 µM | > 95 µM |
| COCc1cccc(-c2csc(C(C)(O)c3ccccc3)n2)c1 (stereo not given) | > 100 µM (inactive) | > 100 µM | > 95 µM (inactive) | > 95 µM | > 95 µM |
| CCCN(C(=O)Cn1c(C(F)(F)F)nc2ccccc21)C1CCS(=O)(=O)C1 (stereo not given) | 11.2 µM | 11.2 µM | > 95 µM (inactive) | > 95 µM | > 95 µM |
| Cc1cccc(NS(=O)(=O)c2cccs2)c1 | > 100 µM (inactive) | > 100 µM | > 95 µM (inactive) | > 95 µM | > 95 µM |
| O=C(c1ccco1)N1CCN(C(=O)c2ccccc2OC(=O)C23CC4CC(CC(C4)C2)C3)CC1 | 0.965 µM | 0.965 µM | > 95 µM (inactive) | > 95 µM | > 95 µM |
| Cc1[nH]n(-c2ccccc2)c(=S)c1C=Nc1cccc([N+](=O)[O-])c1 | > 100 µM (inactive) | > 100 µM | > 95 µM (inactive) | > 95 µM | > 95 µM |
| COC(=O)N[C@@H]1C[C@H]2[C@@H]3CC[C@H]4C[C@@H](OC)CC[C@]4(C)[C@H]3CC[C@]12C | inactive | 69.5 µM | > 95 µM (inactive) | > 95 µM | > 95 µM |
| CC(C)Cc1ccc(C(C)C(=O)Nc2ccc(O)cc2)cc1 (stereo not given) | > 100 µM (inactive) | > 100 µM | > 95 µM (inactive) | > 95 µM | > 95 µM |

Second part, the molecule after the results:

| IC50 (AlphaScreen, mean of runs) | IC50 [1] | IC50 (FP, mean of runs) | IC50 [2] | IC50 [3] | Compound |
| --- | --- | --- | --- | --- | --- |
| inactive | 39.8 µM | > 95 µM (inactive) | > 95 µM | > 95 µM | O=C(NCc1ccccc1)c1cccc(S(=O)(=O)N2CCCCC2)c1 |
| > 100 µM (inactive) | > 100 µM | > 95 µM (inactive) | > 95 µM | > 95 µM | Cc1ccc(NC(=O)c2ccc3c(c2)S(=O)(=O)c2ccccc2C3=O)cc1S(=O)(=O)N1CCOCC1 |
| > 100 µM (inactive) | > 100 µM | > 95 µM (inactive) | > 95 µM | > 95 µM | Cc1ccc(C(=O)N/C(=C\c2ccc(-c3ccccc3[N+](=O)[O-])o2)C(=O)NCCCN2CCOCC2)cc1 |
| > 100 µM (inactive) | > 100 µM | > 95 µM (inactive) | > 95 µM | > 95 µM | CCOC(=O)N1CCN(C(=O)c2cc(COc3ccc(OC)cc3Cl)on2)CC1 |
| > 100 µM (inactive) | > 100 µM | > 95 µM (inactive) | > 95 µM | > 95 µM | COc1ccc(C(=O)N[C@H](C(=O)Nc2nc3c(s2)CCCC3)C(C)C)cc1 |
| > 100 µM (inactive) | > 100 µM | > 95 µM (inactive) | > 95 µM | > 95 µM | CN(Cc1ccccc1)C(=O)c1nc[nH]c1C(=O)N1CCN(C(=O)OC(C)(C)C)CC1 |
| inactive | 27.1 µM | > 95 µM (inactive) | > 95 µM | > 95 µM | COc1cc(OC)nc(NC(=O)COC(=O)c2cccc(Cl)c2)n1 |
| > 100 µM (inactive) | > 100 µM | > 95 µM (inactive) | > 95 µM | > 95 µM | COCCNC(=O)c1cc(-c2ccccc2)nn1CC1CC(c2cccc([N+](=O)[O-])c2)=NO1 (stereo not given) |
| > 100 µM (inactive) | > 100 µM | > 95 µM (inactive) | > 95 µM | > 95 µM | CCOC(=O)Cc1ccc(NS(=O)(=O)c2ccc(SC)cc2)cc1 |
| > 100 µM (inactive) | > 100 µM | > 95 µM (inactive) | > 95 µM | > 95 µM | CCOC(=O)C1=CCN(S(=O)(=O)c2ccccc2Br)C1c1ccccc1 (stereo not given) |
| > 100 µM (inactive) | > 100 µM | > 95 µM (inactive) | > 95 µM | > 95 µM | O=[N+]([O-])c1ccc(Nc2nc(NC3CCCCC3)nc(N3CCCC3)n2)cc1 |
| > 100 µM (inactive) | > 100 µM | > 95 µM (inactive) | > 95 µM | > 95 µM | Cc1ccccc1NC(=O)c1cccc(NC(=O)CCC(=O)O)c1 |
| > 100 µM (inactive) | > 100 µM | > 95 µM (inactive) | > 95 µM | > 95 µM | CC(=O)c1cccc(S(=O)(=O)N2CCC(C(=O)O)(c3ccccc3)CC2)c1 |
| > 100 µM (inactive) | > 100 µM | > 95 µM (inactive) | > 95 µM | > 95 µM | CC(=O)Nc1ccc(Oc2cc(C#N)c(C#N)cc2N2CCOCC2)cc1 |
| inactive | 40.2 µM | > 95 µM (inactive) | > 95 µM | > 95 µM | CCc1cccc(NC(=O)CCc2c(C)nn(-c3ccc(N4CCOCC4)nn3)c2C)c1 |
| > 100 µM (inactive) | > 100 µM | > 95 µM (inactive) | > 95 µM | > 95 µM | COC(=O)c1ccc(Cn2nnc3c(=O)[nH]c(C4CCCN(S(=O)(=O)c5cccc(Cl)c5)C4)nc32)cc1 (stereo not given) |
| > 100 µM (inactive) | > 100 µM | > 95 µM (inactive) | > 95 µM | > 95 µM | Cc1ccc(OCC(=O)Nc2ccc(C)c(S(=O)(=O)N3CCCCCC3)c2)c([N+](=O)[O-])n1 |
| > 100 µM (inactive) | > 100 µM | > 95 µM (inactive) | > 95 µM | > 95 µM | COc1ccc(-c2cc(C)no2)cc1S(=O)(=O)NCc1cccc(C)c1 |
| > 100 µM (inactive) | > 100 µM | > 95 µM (inactive) | > 95 µM | > 95 µM | CCOc1c2ccc(C(=O)NCCc3cccs3)cc2nn1CC |
| > 100 µM (inactive) | > 100 µM | > 95 µM (inactive) | > 95 µM | > 95 µM | CSc1ncccc1C(=O)OCC(=O)NC1CCCCC1 |
| > 100 µM (inactive) | > 100 µM | > 95 µM (inactive) | > 95 µM | > 95 µM | Cc1cccc(N(CC(=O)NC2CCCC2)C(=O)CS(=O)CC(=O)Nc2ccc3c(c2)OCO3)c1C (stereo not given) |
| > 100 µM (inactive) | > 100 µM | > 95 µM (inactive) | > 95 µM | > 95 µM | CSCCC(NC(=O)c1ccc(Cl)cc1Cl)C(=O)NCC(c1cccs1)N(C)C (stereo not given) |
| > 100 µM (inactive) | > 100 µM | > 95 µM (inactive) | > 95 µM | > 95 µM | CCOC(=O)C1CCN(Cc2ccc3ccccc3c2)CC1 |

Source: PubChem BioAssay AID651650 (Sanford-Burnham Center for Chemical Genomics, 2012)
